As usually defined, the inhibition is the relative decrease from the control value, in per cent. A word on the IC50: it is the concentration needed to halve the response being measured.

Common to all, as to format: cell-based, human
Data set [1] has as its system MDA-MB-435 breast cancer cell line. In words: Cytotoxicity MTT assay, MDA-MB-435. Particulars: Homo sapiens; 20 μM, MDA-MB-435, 72 h MTT; read-out: % inhibition of cell growth at 20 μM, 435. The source says:
(§1) Cell Culture. Human breast cancer cells (MCF-7, αvβ3—, overexpressed wild-type p53, ER+; MDA-MB 468, p53 mutant, ER+; and MDA-MB-435, αvβ3+, p53 mutant, ER−) and non-small cell lung cancer cells H1975 were obtained from the American Type Cell Culture (Rockville, Md. Q4). The HEY human ovarian carcinoma cell line naturally resistant to cisplatin (CDDP) was kindly provided by Dr. Dubeau (University of Southern California Norris Cancer Center). Cells were maintained as monolayer cultures in RPMI 1640 supplemented with 10% fetal bovine serum (Gemini-Bioproducts, Woodland, Calif.) and 2 mmol/L L-glutamine at 37° C. in a humidified atmosphere of 5% CO2. To remove the adherent cells from the flask for passaging and counting, cells were washed with PBS without calcium or magnesium, incubated with a small volume of 0.25% trypsin-EDTA solution (Sigma, St. Louis, Mo.) for 5 to 10 minutes, and washed with culture medium and centrifuged. All experiments were done using cells in exponential cell growth.
(§2) Cytotoxicity Assay. Cytotoxicity was assessed by 3-(4,5-dimethylthiazol-2-yl)-2,5-diphenyltetrazolium bromide (MTT) assay as previously described.^41, 54 Briefly, cells were seeded in 96-well microtiter plates and allowed to attach. Cells were subsequently treated with a continuous exposure to the corresponding drug for 72 hours. An MTT solution (at a final concentration of 0.5 mg/mL) was added to each well and cells were incubated for 4 hours at 37° C. After removal of the medium, DMSO was added and the absorbance was read at 570 nm. All assays were done in triplicate. The IC50 was then determined for each drug from a plot of log (drug concentration) versus percentage of cell kill.
(§3) Cytotoxicity of Selected Compounds in a Panel of Cancer Cell lines. Initially, we tested all compounds in two breast cancer cell lines MDA-MB-435 and MCF7 with high and low αvβ3 expression as well as in HEY ovarian cancer cell line naturally resistant to cisplatin. […] We observed a remarkable specificity for some of the compounds against these cells. […] Considering the fact that αvβ3 mediates migration, attachment and apoptosis of cancer cells, the combination of these novel high affinity antagonists with conventional cytotoxic drugs should show improved therapeutic benefits without additional toxicity.
(§4) NVX-188 was tested for cytotoxicity by MTT assays in two breast cancer cell lines, MDA-MB-435 with high αvβ3 integrin expression and MCF7 with low αvβ3 integrin expression, and an ovarian cancer cell line, HEY, which was used to test for cell growth inhibition evidence. NVX-188 was further evaluated in a lung cancer cell line, NCI-H1975, and a mouse fibroblast, NIH3T3. NVX-188 was not cytotoxic at the highest dose level tested (20 uM).
(In general: Tetrazolium dyes change colour on reduction, which living cells bring about.)

For data set [2], the system named is MCF7 breast cancer cell line. In words: Cytotoxicity MTT assay, MCF7. Particulars: Homo sapiens; 20 μM, MCF7, 72 h MTT; read-out: % inhibition of cell growth at 20 μM, MCF7.
Text: as §1, §2, §3, §4

Data set [3] deals with HEY ovarian cancer cell line. Description: Cytotoxicity MTT assay, HEY. The settings on record: Homo sapiens; 20 μM, HEY, 72 h MTT; read-out: % inhibition of cell growth at 20 μM, HEY.
Text: as §1, §2, §3, §4

Data set [4] in a line: Cytotoxicity MTT assay, MDA-MB-435. The settings on record: human, MDA-MB-435 breast cancer cells; MDA-MB-435, Table 5.
Text: as §1, §2, §3, §4

Data set [5] can be described thus: Cytotoxicity MTT assay, MCF7. Particulars: human, MCF-7 breast cancer cells; MCF-7, Table 5.
Text: as §1, §2, §3, §4

A short description of data set [6]: Cytotoxicity MTT assay, HEY. Particulars: human, HEY ovarian carcinoma cells; HEY, Table 5.
Text: as §1, §2, §3, §4

In the case of `CCC(=O)Nc1nc(C)c(-c2csc(Nc3cccc(C(=O)O)c3)n2)s1` [AV31], the inhibition at 20 µM came out at 21% in data set [1], 44% in data set [2] and 62% in data set [3].

For the compound `CN(C1=NC(=O)/C(=C\c2ccc(OCC(=O)O)cc2)S1)c1ccc(O)cc1` [AV24], the inhibition at 20 µM in data set [1] is 9%; in data set [2], 21%; in data set [3], 19%.

Turning to `Nc1nc(O)c2cc(CSc3ccc(C(=O)NC(CCC(=O)O)C(=O)O)cc3)ccc2n1` (stereo not drawn) [AV7], the inhibition at 20 µM was 5% in data set [1], 22% in data set [2] and 0% in data set [3].

Consider `O=C(CSc1nnnn1-c1ccc(O)cc1)NCc1cccc(C(=O)O)c1` [AV23], for which the inhibition at 20 µM in data set [1] turned out to be 9%; in data set [2], 34%; in data set [3], 0%.

As for `COc1cc(OC)c(/C=C2\S/C(=N/c3ccc(C(=O)O)cc3)N(C)C2=O)cc1Br` [AV36], the inhibition at 20 µM in data set [1] came to 16%; in data set [2], 29%; in data set [3] it was 4%.

`COc1cc(/C=C2\NC(=O)N(CC(=O)Nc3ccc(C)cc3)C2=O)ccc1OCc1cccc(C(=O)O)c1` [AV21]: the inhibition at 20 µM in data set [1] worked out at 26%; in data set [2], 43%; in data set [3], 0%.

In the case of `O=C(CCCCn1cnc2c(S)ncnc21)Nc1ccc(C(=O)O)c(O)c1` [AV2], the inhibition at 20 µM in data set [1] was found to be 1%; in data set [2], 1%; in data set [3] it was 0%.

Consider `COc1cc(/C=C2\S/C(=N/c3cccc(C(=O)O)c3)N(C)C2=O)cc(Cl)c1O` [AV37], for which the inhibition at 20 µM in data set [1] is 3%; in data set [2] it was 9%; in data set [3], 0%.

In the case of `CC1=C(C#N)c2nc(N)c(C#N)c(C)c2/C1=C/c1ccc(-c2ccc(Cl)c(C(=O)O)c2)o1` [AV15], the inhibition at 20 µM was 33% in data set [1], 14% in data set [2] and 14% in data set [3].

For the compound `CCn1cc(C(=O)O)c(=O)c2cc(F)c(N3CCN(S(=O)(=O)c4ccc(NC(C)=O)cc4)CC3)cc21` [AV22], the values for the inhibition at 20 µM in data set [1], in data set [2] and in data set [3] were 25%, 7% and 0%, respectively.

Regarding `CCC(=O)Nc1ccc(C(=O)Nc2ccc(OCC(=O)O)cc2)cc1` [AV28], the inhibition at 20 µM came out at 32% in data set [1], 32% in data set [2] and 34% in data set [3].

`CCOc1cc(/C=N/Nc2nc(Nc3ccccc3)nc(N3CCCCC3)n2)ccc1OCC(=O)O` [AV14]: the inhibition at 20 µM turned out to be 70% in data set [1], 3% in data set [2] and 0% in data set [3].

In the case of `O=C(O)c1ccc(-c2ccc(/C=N/Nc3nc(Nc4ccccc4)nc(Nc4ccccc4)n3)o2)cc1` [AV10], the IC50 at 72 h in data set [4] is 18 ± 9 µM; in data set [5] it was above 20 µM; in data set [6], 21 ± 3 µM. Moreover, the inhibition at 20 µM in data set [1] came out at 93%; in data set [2], 62%; in data set [3], 73%.

In the case of `O=C(CCCCn1cnc2c(S)ncnc21)Nc1ccc(C(=O)O)cc1` [AV1], the inhibition at 20 µM is 0% in data set [1], 0% in data set [2] and 14% in data set [3].

For `COc1cc(/C=C2/SC(N(C)c3ccc(O)cc3)=NC2=O)ccc1OCC(=O)O` [AV25], the figures for the inhibition at 20 µM in data set [1], in data set [2] and in data set [3] were 26%, 29% and 12%, respectively.

Consider `Nc1ccc(C(=O)Nc2nc3ccc(C(=O)O)cc3s2)cc1` [AV9], for which the inhibition at 20 µM in data set [1] was 19%; in data set [2], 36%; in data set [3], 0%.

Consider `COc1cc(/C=N/Nc2nc(Nc3ccc(F)cc3)nc(N3CCCCC3)n2)ccc1OCC(=O)O` [AV11], for which the inhibition at 20 µM was 53% in data set [1], 49% in data set [2] and 0% in data set [3].

Take `Cc1ccnc(NS(=O)(=O)c2ccc(NC(=O)c3ccc(C(=O)O)cc3C(=O)O)cc2)n1` [AV18]: the inhibition at 20 µM in data set [1] turned out to be 18%; in data set [2] it was 11%; in data set [3] it was 0%.

On to `CN(Cc1cnc2nc(N)nc(N)c2n1)c1ccc(C(=O)NC(CCCCN)C(=O)O)cc1` (stereo not drawn) [AV4], for which the figures for the inhibition at 20 µM in data set [1], in data set [2] and in data set [3] were 16%, 30% and 0%, respectively.

Consider `O=C(O)COc1ccc(/C=N/NC(=O)c2ccc(O)cc2)cc1OCC(=O)O` [AV29], for which the results for the inhibition at 20 µM in data set [1], in data set [2] and in data set [3] were 14%, 21% and 9%, respectively.

With `CC(=O)Nc1nc(O)c2nc(CCN(C)c3ccc(C(=O)O)cc3)cnc2n1` [AV5], the inhibition at 20 µM came out at 49% in data set [1], 0% in data set [2] and 0% in data set [3].

On to `CC1=NN(c2ccc(C(=O)O)cc2)C(=O)/C1=C/c1ccc(-c2ccc(S(N)(=O)=O)cc2)o1` [AV19], for which the IC50 at 72 h in data set [4] was above 20 µM; in data set [5], 19 ± 4 µM; in data set [6] it was above 20 µM. The results for the inhibition at 20 µM in data set [1], in data set [2] and in data set [3] were 30%, 66% and 6%, respectively.

On to `Cc1nnc(N/N=C/c2ccc(OCC(=O)O)cc2)nc1O` [AV20], for which the figures for the inhibition at 20 µM in data set [1], in data set [2] and in data set [3] were 11%, 27% and 0%, respectively.

Take `Nc1nc(O)c2nc3c(nc2n1)C(=O)N(c1ccc(C(=O)NC(CCC(=O)O)C(=O)O)cc1)C3` (stereo not drawn) [AV6]: the inhibition at 20 µM in data set [1] worked out at 12%; in data set [2], 19%; in data set [3], 0%.

Take `Nc1nc(O)c2cc(COc3ccc(C(=O)NC(CCC(=O)O)C(=O)O)cc3)ccc2n1` (stereo not drawn) [AV8]: the inhibition at 20 µM in data set [1] came to 12%; in data set [2], 24%; in data set [3], 6%.

Source of the values: patent US7928113B2, “Integrin-binding small molecules” (University of Southern California, priority 2005, dated 2011).
